# Laboratory results published in patent publication US20180258100A1, “RAPAMYCIN ANALOGS SHOWING IMPROVED mTORC1 SPECIFICITY” (priority 2015, published 2018).
# How the values were obtained:
# [1] = Fat mass by EchoMRI body composition after four weeks; type: in vivo, male C57BL/6J mice; details: 4 weeks of every other day administration; rapamycin 8 mg/kg, compound 390 12 mg/kg; versus vehicle
# Experimental: (§1) Fortyfive C57BL/6J male mice, housed three per cage, were weighed and their body composition was measured with an EchoMRI 3-in-1 system. Cages were sorted into three groups—vehicle, rapamycin, and compound 390—such that the average weight was similar for all three groups. Mice received every-other-day injections of either vehicle, rapamycin (8 mg/kg), or compound 390 (12 mg/kg). A glucose tolerance test was performed after 2 weeks (morning after the 8th injection). A pyruvate tolerance test was performed after 3 weeks. Glucose stimulated insulin secretion assay was performed after 4 weeks and additional blood was collected for whole blood analysis. Body composition was measured on day −2 and day 31.
# Tg4510 mice = experiment: Morris water maze test in Tg4510 mice; type: in vivo; details: 12 mg/kg, 4-weeks treatment, versus vehicle-treated Tg4510 mice
# Experimental: (§2) Female Tg4510 and control mice were purchased from the Jackson Laboratory (Bar Harbor, Me.). All mice were examined and weighed prior to initiation of the study to ensure adequate health and suitability and were caged under controlled temperature (20-23° C.) and relative humidity (maintained around 50%). All tests were performed during the animal's light cycle phase. Mice received every-other-day injections of either vehicle or compound 390 (12 mg/kg) in the following groups: (a) wild-type (WT) mice receiving vehicle (n=16); (b) Tg4510 mice receiving vehicle (n=15) and (c) Tg4510 mice receiving DL390 (12 mg/kg; n=15)
# The test was performed in a circular tank, measuring 48″ in diameter. Extra-maze cues were mounted around the water tank. On 5 consecutive days of the week, test sessions were conducted with the platform submerged approximately 1.3 cm below the surface of the water. On each day, there were 4 trials, 60 s long. Approximately 15 min elapsed between each trial. On the fifth day of acquisition training, the last trial (out of 4) consisted of 60 s without the platform.
# [2] = Plasma lipid levels after chronic i.p. dosing; type: in vivo, female C57BL/6J mice; details: rapamycin 8 mg/kg, compound 390 12 mg/kg i.p. every other day; versus vehicle
# Experimental: (§3) 10-week old female C57BL/6J mice were given intraperitoneal injections of 8 mg/kg rapamycin (LC laboratories), 12 mg/kg compound 390 or vehicle every other day for three weeks (N=5 mice/group), such as to mimic chronic exposure conditions. 24 hours after the last injection, tissues were dissected from the mice and immediately frozen in liquid nitrogen. The tissues were homogenized using the Omni TH homogenizer (Omni International) on ice in RIPA buffer and then centrifuged at 13,000 rpm for 15 minutes at 4° C. The supernatants were collected and protein concentration was determined using the DC protein assay (Biorad).
# Plasma lipid levels were determined at the end of the three-week exposure. Free fatty acids in the serum were measured by the HR Series NEFA-HR(2) (Wako Diagnostics, Richmond, Va.). Triglycerides and cholesterol in serum were measured by Triglycerides Liquicolor Test and Cholesterol Liquicolor Test (Stanbio laboratory, Boerne, Tex.), respectively.
# [3] = Glucose challenge response; type: in vivo, female C57BL/6J mice; details: 2 mg/kg glucose after 1 week; rapamycin 8 mg/kg, compound 390 12 mg/kg i.p. every other day
# Experimental: as §3
# Steady state glucose levels were determined after one week from study initiation using a Bayer Contour blood glucose meter and test strips from small blood samples, which were withdrawn from a tail vein nick. […]
# mTORC2 = molecular target: T1, mTORC2 (Homo sapiens, UniProt P42345+P62942); experiment: AlphaLISA SureFire Akt 1/2/3 in PC3 cells, phosphorylation of Akt at Ser473 (mTORC2 inhibition); type: cell-based
# T1 construct: endogenous in cells; host or cells: PC3 cells
# T1 sequence (P62942 2-108 limits assumed, other chains not shown): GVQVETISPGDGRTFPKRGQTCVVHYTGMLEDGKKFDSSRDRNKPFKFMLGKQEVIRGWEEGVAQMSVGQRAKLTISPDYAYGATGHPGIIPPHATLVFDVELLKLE
# Experimental: PC3 cells were maintained in F12K media (ATCC/GIBCO, Cat# ATCC 30-2004) supplemented with additional 10% FBS (Gemini, cat#100-106), 1% Penicillin/Streptomycin (Life Technologies, cat #15140-122), and 2 mM L-Glutamine (Life Technologies, cat#25030) and cultured at 37° C. For AlphaLISA experiments, cells were seeded in 96-well plates for 24 hours and treated at various concentrations of compound (from approx. 8 fM to 10 μM) for 24 hours. Cells were harvested by lysis in the buffer supplied with the AlphaLISA kit.
# mTORC1 inhibition was determined using the AlphaLISA® SureFire® kit (Perkin Elmer) which measures phosphorylation of S6 kinase at positions Ser^240 and Ser^244. mTORC2 inhibition was determined by the AlphaLISA® SureFire® kit for Akt 1/2/3, which determines phospholyltation of Akt protein at position Ser^473. Cells from plates were lysed and incubated for 10 min at room temperature while shaking. Cell lysates were incubated with acceptor mix for 2 hours at room temperature; the donor mix was then added and the resulting solution was incubated for 2 hours at room temperature. AlphaLISA® signal was determined on a Fusion-Alpha FP HT (Perkin Elmer). Percent inhibition was calculated by comparison to the highest inhibition value obtained in the response-concentration curve. IC50s were calculated using Prism software. […]
# mTORC2 complex = mTORC2 complex (Mus musculus, UniProt P26883+Q9JLN9); experiment: mTORC2 assembly: immunoprecipitation of Rictor from liver and immunoblotting for mTOR; type: in vivo, male C57BL/6J mice; details: liver, four weeks; rapamycin 8 mg/kg, compound 390 12 mg/kg i.p. every other day
# Chain of mTORC2 complex (P26883 2-108 limits assumed, other chains not shown): as the sequence (P62942 2-108 limits assumed, other chains not shown) above, with M49T, T75I, P78S counted along it
# Experimental: as §1, with “Cages were sorted into three groups—vehicle, rapamycin, and compound 390—such that the average weight was similar for all three groups.” left out
# [4] = test system: autophagy markers (pULK/ULK, Beclin-1, Vps34, LC3B, p62); experiment: Autophagy markers in brain of Tg4510 mice; type: in vivo; details: 12 mg/kg i.p., 4 weeks
# Experimental: as §2
# A number of autophagy markers were measured both in the cortex and hippocampus tissue to assess the status of the autophagic clearance mechanism across the three study groups. Specifically, pULK/ULK, Beclin-1, Vps34, LC3B and p62 were measured using the appropriate antibodies (Cell Signaling Technology).
# [5] = Glucose tolerance test after 2 weeks of chronic dosing; type: in vivo, male C57BL/6J mice; details: rapamycin 8 mg/kg, compound 390 12 mg/kg every other day, male mice
# Experimental: as §1, with “Cages were sorted into three groups—vehicle, rapamycin, and compound 390—such that the average weight was similar for all three groups.” left out
# Mice were fasted overnight for 16 hours and then injected with either glucose (1 g/kg) or pyruvate (2 g/kg) intraperitoneally. For glucose and pyruvate tolerance tests, small blood samples were taken from a tail vein nick at time intervals and read using a Bayer Contour blood glucose meter and test strips. For glucose-stimulated insulin secretion, blood glucose levels were read using a glucometer and then 50 μL of blood was collected into a heparinized tube immediately prior to and 15 minutes following glucose administration. Insulin levels were determined using a Mouse Insulin ELISA kit (Crystal Chem).
# [6] = Insulin challenge response; type: in vivo, female C57BL/6J mice; details: 0.75 IU/kg insulin after 2 weeks; rapamycin 8 mg/kg, compound 390 12 mg/kg i.p. every other day
# Experimental: FIG. 10. Response to insulin challenge following administration of 0.75 IU/kg insulin at t=2 weeks following the initiation of the intraperitoneal administrations of 8 mg/kg rapamycin, 12 mg/kg compound 390 or vehicle control every other day in female mice (N=5).
# as §3
structure (smiles),measurement,setting,value
"CO[C@H]1CC2CC[C@@H](C)[C@@](O)(O2)C(=O)C(=O)N2CCCC[C@H]2C(=O)O[C@H]([C@@H](C)CC2CCC(O)CC2)CC(=O)[C@@H](C)/C=C(\C)[C@H](O)[C@H](O)C(=O)[C@@H](C)C[C@H](C)/C=C/C=C/C=C/1C (stereo partly shown) [compound 390, 27-O-Desmethyl-39-Desmethoxy Rapamycin]",fat mass (adiposity),[1],does not induce any increase of adiposity
same,"behavioral performance, total distance travelled during acquisition days",Tg4510 mice,strong trends of behavioral improvement
same,plasma cholesterol,[2],did not produce any changes
same,plasma free fatty acids,[2],did not produce any changes
same,plasma triglycerides,[2],did not produce any changes
same,glucose response after glucose challenge (glucose intolerance),[3],indistinguishable from the vehicle-receiving control animals
same,lower inhibition of mTORC2 compared to rapamycin,mTORC2,~150 fold
same,integrity of hepatic mTORC2 complex assembly,mTORC2 complex,no effect upon hepatic mTORC2 assembly
same,Beclin-1 activity (initiation phase of autophagy),[4],nearly full restoration of Beclin-1 activity
same,ULK1 phosphorylation (induction phase of autophagy),[4],reduction of ULK1 phosphorylation
same,accumulated LC3B-II levels (maturation and lysosomal clearance),[4],substantial reduction
same,accumulated p62 levels (maturation and lysosomal clearance),[4],substantial reduction
same,"autophagy in the brain, all stages",[4],substantial and statistically significant upregulation
same,glucose tolerance test,[5]; after 2 weeks,identical to the vehicle-receiving animals
same,fasting hyperglycemia,[5]; chronic dosing,does not cause
same,glucose response after insulin challenge (insulin resistance),[6],indistinguishable from the vehicle-receiving control animals
